Test system: 873145-292-R-J1-PDC complex spheroid viability
Test: Anticancer human tumor 873145-292-R-J1-PDC patient-derived renal clear cell carcinoma cell line growth inhibition [POLQ]
Conditions: for IC50: curve of first compound; for viability, T/C: stronger effect = lower value
Protocol: Multicellular complex tumor spheroid response to Polymerase (POL) inhibitors (novobiocin, ART-558, RP6685) in combination with a variety of drugs and investigational agents in selected tumor cell lines
The POL inhibitors (novobiocin, ART-558, and RP6685) were evaluated both individually and in combination with standard of care and investigational anticancer small molecules within a complex spheroid model of solid tumors. . Complex spheroids include a stromal component modeled by human endothelial cells (HUVEC) and fibroblasts modeled by human mesenchymal stem cells (MSCs). The concentration ranges selected for each drug and investigational agent were based upon clinically achievable concentrations if the clinical Cmax of the agent was known.
Compounds. The drugs and investigational agents: novobiocin (NSC847541), ART-558 (NSC835418), RP-6685 (NSC848927), peposertib (NSC802822), ceralasertib (NSC780249), elimusertib (NSC800525), camonsertib (NSC841442), AZD-1390 (NSC803789), olaparib (NSC753686), talazoparib (NSC767125), rucaparib (NSC756644), sotorasib (NSC818433), MRTX-1133 (NSC836407), SN-38 (NSC673596), topotecan (NSC609699), epotoside (NSC141540), doxorubicin (NSC123127), gemcitabine (NSC613327), 5-fluorouracil (NSC19893), paclitaxel (NSC125973), vemurafenib (NSC761431), MSA-2 (NSC828583), SN-011 (NSC837082), adavosertib (NSC754352), prexasertib (NSC758257), carboplatin (NSC241240) and oxaliplatin (NSC266046), were obtained from the National Cancer Institute (NCI) Developmental Therapeutics Program Chemical Repository (21). The FDA-approved anticancer drug set is available from the Developmental Therapeutics Program at https://dtp.cancer.gov/organization/dscb/obtaining/. […] The stock solutions were prepared in dimethyl sulfoxide (DMSO, Sigma-Aldrich, St. Louis, MO, cat. D2650), except for the platinum compounds which were prepared in saline (Quality Biological, Gaithersburg, MD, cat. 114-055-101), at 800-fold the tested concentration and stored at -70 degrees C prior to their use. All drugs and investigational agents were tested over a range starting from a high concentration at or near the clinical Cmax and decreasing in half-log increments. If the clinical Cmax for an agent had not been determined, the highest concentration tested was 10 microM, except for SN-38, which was tested at a high concentration of 1 microM.
Cell Culture. All cells were maintained in an incubator at 37 degrees C and 5% CO2 with 95% humidity. The PDC lines were cultured according to standard operating procedures established by the NCI PDMR (https://pdmr.cancer.gov). Table 3 of the manuscript, lists the cell lines along with the number of the three cell types plated to form the mct-spheroids and media for tumor cell growth. After thawing, all PDC lines, except 997537-175-T-J1-PDC and 415267-285-R-J2-PDC, were cultured in Matrigel-coated flasks prepared with a working solution of 1X Ham's F-12 nutrient mix, without supplementation (Thermo Fisher Scientific, cat. 11765054), 100 U/mL penicillin-streptomycin (Thermo Fisher Scientific, cat. 15140122), and 2.5% Matrigel (Corning Inc., Corning, NY, cat. 354248) for the first three passages. The two PDC lines 997537-175-T-J1-PDC and 415267-285-R-J2-PDC were cultured on uncoated flasks. The 857933-349-R-J2-PDC line was cultured in 6C/Colon 1B media containing advanced DMEM/F-12 (Thermo Fisher Scientific, cat. 12634028), 10 mM HEPES (Thermo Fisher Scientific, cat. 15630080), 1X GlutaMAX supplement (Thermo Fisher Scientific, cat. 35050061), 0.1 mg/mL primocin (InvivoGen, San Diego, CA, cat. ant-pm-2), 10% defined fetal bovine serum, heat inactivated (HyClone Laboratories Inc., Logan, UT, cat. SH30070.03HI), 50% L-WRN conditioned media (ATCC, cat. CRL-3276), 1.25 mM N-Acetyl-L-cysteine (Sigma-Aldrich, cat. A9165), 10 mM nicotinamide (Sigma-Aldrich, cat. N0636), 1X B-27 supplement (Thermo Fisher Scientific, cat. 17504044), 1X N-2 supplement (Thermo Fisher Scientific, cat. […]

[1] = second compound 0.0316 µM, first compound 0.0316 µM
[2] = second compound 0.0316 µM, first compound 0.1 µM
[3] = second compound 0.0316 µM, first compound 0.316 µM
[4] = second compound 0.0316 µM, first compound 1 µM
[5] = second compound 0.0316 µM, first compound 3.16 µM
[6] = second compound 0.0316 µM, first compound 10 µM
[7] = second compound 0.1 µM, first compound 0.0316 µM
[8] = second compound 0.1 µM, first compound 0.1 µM
[9] = second compound 0.1 µM, first compound 0.316 µM
[10] = second compound 0.1 µM, first compound 1 µM
[11] = second compound 0.1 µM, first compound 3.16 µM
[12] = second compound 0.1 µM, first compound 10 µM
[13] = second compound 0.316 µM, first compound 0.0316 µM
[14] = second compound 0.316 µM, first compound 0.1 µM
[15] = second compound 0.316 µM, first compound 0.316 µM
[16] = second compound 0.316 µM, first compound 1 µM
[17] = second compound 0.316 µM, first compound 3.16 µM
[18] = second compound 0.316 µM, first compound 10 µM
[19] = second compound 1 µM, first compound 0.0316 µM
[20] = second compound 1 µM, first compound 0.1 µM
[21] = second compound 1 µM, first compound 0.316 µM
[22] = second compound 1 µM, first compound 1 µM
[23] = second compound 1 µM, first compound 3.16 µM
[24] = second compound 1 µM, first compound 10 µM
[25] = second compound 3.16 µM, first compound 0.0316 µM
[26] = second compound 3.16 µM, first compound 0.1 µM
[27] = second compound 3.16 µM, first compound 0.316 µM
[28] = second compound 3.16 µM, first compound 1 µM
[29] = second compound 3.16 µM, first compound 3.16 µM
[30] = second compound 3.16 µM, first compound 10 µM
[31] = second compound 10 µM, first compound 0.0316 µM
[32] = second compound 10 µM, first compound 0.1 µM
[33] = second compound 10 µM, first compound 0.316 µM
[34] = second compound 10 µM, first compound 1 µM
[35] = second compound 10 µM, first compound 3.16 µM
[36] = second compound 10 µM, first compound 10 µM
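Also: spheroids exposed to compounds for 7 days before viability readout.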
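For viability, T/C in this document: luminescence signal used as surrogate for viable cell content; 100% = DMSO vehicle control viability.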

COc1ccc([C@@H](O)c2cc(-c3ncnc4cc(N5CCOCC5)ccc34)c(F)cc2Cl)nn1 + Nc1ccc(C#CCN(C(=O)Cc2ncc(C(F)(F)F)cc2C(F)(F)F)c2ccc(F)cc2)nn1
IC50 (second compound 0.0316 µM): 4690 nM
IC50 (second compound 0.1 µM): 5130 nM
IC50 (second compound 0.316 µM): 5160 nM
IC50 (second compound 1 µM): 6140 nM
IC50 (second compound 3.16 µM): 5930 nM
IC50 (second compound 10 µM): > 10000 nM
viability, T/C [1]: 102%
viability, T/C [2]: 91.9%
viability, T/C [3]: 86.2%
viability, T/C [4]: 64.2%
viability, T/C [5]: 54.1%
viability, T/C [6]: 44.4%
viability, T/C [7]: 92.8%
viability, T/C [8]: 91.4%
viability, T/C [9]: 82.9%
viability, T/C [10]: 64.9%
viability, T/C [11]: 58.1%
viability, T/C [12]: 42.2%
viability, T/C [13]: 90.8%
viability, T/C [14]: 114%
viability, T/C [15]: 76.1%
viability, T/C [16]: 67.3%
viability, T/C [17]: 60.7%
viability, T/C [18]: 41.1%
viability, T/C [19]: 92.4%
viability, T/C [20]: 85.4%
viability, T/C [21]: 92.1%
viability, T/C [22]: 78.6%
viability, T/C [23]: 59.8%
viability, T/C [24]: 43%
viability, T/C [25]: 99.5%
viability, T/C [26]: 93.6%
viability, T/C [27]: 81.4%
viability, T/C [28]: 74%
viability, T/C [29]: 51%
viability, T/C [30]: 47.3%
viability, T/C [31]: 104%
viability, T/C [32]: 105%
viability, T/C [33]: 86.5%
viability, T/C [34]: 81%
viability, T/C [35]: 60%
viability, T/C [36]: 53.6%

CC1COCCN1c1cc(C2(O)CC3CCC(C2)O3)c2cnn(-c3ccn[nH]3)c2n1 (stereo unspecified) + Nc1ccc(C#CCN(C(=O)Cc2ncc(C(F)(F)F)cc2C(F)(F)F)c2ccc(F)cc2)nn1
IC50 (second compound 0.0316 µM): 2400 nM
IC50 (second compound 0.1 µM): 1090 nM
IC50 (second compound 0.316 µM): > 10000 nM
IC50 (second compound 1 µM): 1680 nM
IC50 (second compound 3.16 µM): > 10000 nM
IC50 (second compound 10 µM): > 10000 nM
viability, T/C [1]: 101%
viability, T/C [2]: 84%
viability, T/C [3]: 61.3%
viability, T/C [4]: 52.8%
viability, T/C [5]: 50.3%
viability, T/C [6]: 47.6%
viability, T/C [7]: 111%
viability, T/C [8]: 81.9%
viability, T/C [9]: 61.5%
viability, T/C [10]: 48.1%
viability, T/C [11]: 49.8%
viability, T/C [12]: 40.9%
viability, T/C [13]: 94.3%
viability, T/C [14]: 79.4%
viability, T/C [15]: 54.9%
viability, T/C [16]: 50.4%
viability, T/C [17]: 59.4%
viability, T/C [18]: 45.6%
viability, T/C [19]: 89.2%
viability, T/C [20]: 72.2%
viability, T/C [21]: 59.9%
viability, T/C [22]: 50.2%
viability, T/C [23]: 51.2%
viability, T/C [24]: 42.4%
viability, T/C [25]: 89.2%
viability, T/C [26]: 81%
viability, T/C [27]: 67.5%
viability, T/C [28]: 53.2%
viability, T/C [29]: 56.8%
viability, T/C [30]: 46.9%
viability, T/C [31]: 99.3%
viability, T/C [32]: 94.5%
viability, T/C [33]: 66%
viability, T/C [34]: 57.1%
viability, T/C [35]: 55.3%
viability, T/C [36]: 48.2%

CC1COCCN1c1cc(-c2ccnn2C)c2ccnc(-c3ccn[nH]3)c2n1 (stereo unspecified) + Cc1cccc(N(C)C(=O)C2C(O)CCN2c2nc(C)cc(C(F)(F)F)c2C#N)c1
IC50 (second compound 0.0316 µM): 1080 nM
IC50 (second compound 0.1 µM): 1600 nM
IC50 (second compound 0.316 µM): 1540 nM
IC50 (second compound 1 µM): 1530 nM
IC50 (second compound 3.16 µM): 987 nM
IC50 (second compound 10 µM): 895 nM
viability, T/C [1]: 90.6%
viability, T/C [2]: 79.1%
viability, T/C [3]: 68.1%
viability, T/C [4]: 46.1%
viability, T/C [5]: 48.6%
viability, T/C [6]: 43.1%
viability, T/C [7]: 99.3%
viability, T/C [8]: 87.7%
viability, T/C [9]: 74.3%
viability, T/C [10]: 54.5%
viability, T/C [11]: 39.9%
viability, T/C [12]: 45.4%
viability, T/C [13]: 95.1%
viability, T/C [14]: 90.6%
viability, T/C [15]: 69%
viability, T/C [16]: 53.3%
viability, T/C [17]: 47%
viability, T/C [18]: 36.1%
viability, T/C [19]: 92.3%
viability, T/C [20]: 80.5%
viability, T/C [21]: 67.7%
viability, T/C [22]: 50.4%
viability, T/C [23]: 46.6%
viability, T/C [24]: 44.4%
viability, T/C [25]: 101%
viability, T/C [26]: 88%
viability, T/C [27]: 71.4%
viability, T/C [28]: 47%
viability, T/C [29]: 44.1%
viability, T/C [30]: 40.5%
viability, T/C [31]: 91.6%
viability, T/C [32]: 82.9%
viability, T/C [33]: 69%
viability, T/C [34]: 46.5%
viability, T/C [35]: 42%
viability, T/C [36]: 40.2%

Reference: PubChem BioAssay AID1963834 (Molecular Pharmacology Branch, DTP, NCI, 2024)
